Source: PubChem BioAssay AID328 (DTP/NCI, 2004)
Where “and” joins values, the source holds several entries; their conditions need not be identical. Equal entries are not always repeated. Inconclusive results and toxic doses are left out. Rule for the calls: active = survival T/C of 150% or more; inactive = T/C below 125% in these data.

System: BDF1 mice, P388 leukemia ip, median survival T/C
Test: NCI In Vivo Anticancer Drug Screen. Data for tumor model P388 Leukemia (intraperitoneal) in B6D2F1 (BDF1) mice
Settings: endpoint: median survival time, higher = longer survival
Method: The antitumor activity of compounds was measured in mice bearing transplantable tumors. Survival or tumor size were measured and the results are expressed as the measurement made in the treated group (T) divided by the measurement made in the vehicle treated control group (C). The tumor model used in this assay is P388 Leukemia (intraperitoneal) in B6D2F1 (BDF1) mice

[1] = dose: 12.0 mg/kg/injection, schedule: Q04DX003 (ip), vehicle: Klucel (hydroxypropylcellulose) (HPC)
[2] = dose: 25.0 mg/kg/injection, schedule: Q04DX003 (ip), vehicle: Klucel (hydroxypropylcellulose) (HPC)
[3] = dose: 100.0 mg/kg/injection, schedule: Q04DX003 (ip), vehicle: Klucel (hydroxypropylcellulose) (HPC)
[4] = dose: 50.0 mg/kg/injection, schedule: Q04DX003 (ip), vehicle: saline with Tween-80
[5] = dose: 100.0 mg/kg/injection, schedule: Q01DX009 (ip), vehicle: saline with Tween-80
[6] = dose: 200.0 mg/kg/injection, schedule: Q01DX009 (ip), vehicle: Klucel (hydroxypropylcellulose) (HPC)
[7] = dose: 200.0 mg/kg/injection, schedule: Q01DX009 (ip), vehicle: saline with Tween-80
[8] = dose: 400.0 mg/kg/injection, schedule: Q01DX009 (ip), vehicle: saline with Tween-80
[9] = dose: 50.0 mg/kg/injection, schedule: Q01DX009 (ip), vehicle: saline with Tween-80
[10] = dose: 100.0 mg/kg/injection, schedule: Q04DX003 (ip), vehicle: saline with Tween-80
[11] = dose: 25.0 mg/kg/injection, schedule: Q01DX009 (ip), vehicle: saline with Tween-80
[12] = dose: 200.0 mg/kg/injection, schedule: Q04DX003 (ip), vehicle: Klucel (hydroxypropylcellulose) (HPC)
[13] = dose: 200.0 mg/kg/injection, schedule: Q04DX003 (ip), vehicle: saline with Tween-80

Measured: T/C

CC(=O)OCC(=O)[C@@]1(O)[C@H](C)C[C@H]2[C@@H]3C=C(C)C4=Cc5c(cnn5-c5ccc(F)cc5)C[C@]4(C)[C@H]3[C@@H](O)C[C@@]21C
inactive: dose: 0.19 mg/kg/injection, schedule: Q01DX009 (sc), vehicle: steriod suspending solution 120 % of control | dose: 0.39 mg/kg/injection, schedule: Q01DX009 (sc), vehicle: steriod suspending solution 110 % of control | dose: 0.58 mg/kg/injection, schedule: Q04DX003 (sc), vehicle: steriod suspending solution 118 % of control | dose: 0.78 mg/kg/injection, schedule: Q01DX009 (sc), vehicle: steriod suspending solution 90 % of control | dose: 1.17 mg/kg/injection, schedule: Q04DX003 (sc), vehicle: steriod suspending solution 118 % of control | dose: 2.34 mg/kg/injection, schedule: Q04DX003 (sc), vehicle: steriod suspending solution 118 % of control | dose: 3.4 mg/kg/injection, schedule: Q04DX003 (sc), vehicle: steriod suspending solution 100 % of control | dose: 5.3 mg/kg/injection, schedule: Q04DX003 (sc), vehicle: steriod suspending solution 90 % of control | dose: 6.0 mg/kg/injection, schedule: Q04DX003 (ip), vehicle: Klucel (hydroxypropylcellulose) (HPC) 105 % of control | [1] 105 % of control | [2] 90 % of control | [3] 90 % of control

O=C1NN(c2ccccc2)C(=O)/C1=C\c1ccccc1O
inactive: dose: 350.0 mg/kg/injection, schedule: Q01DX009 (ip), vehicle: saline with Tween-80 97 % of control

c1ccc(COC2CN3CCC2CC3)cc1 (stereo not drawn)
inactive: dose: 25.0 mg/kg/injection, schedule: Q04DX003 (ip), vehicle: saline with Tween-80 122 % of control | [4] 100 % of control

Clc1ccc(-c2n[se]c(-c3ccc(Cl)cc3)n2)cc1
inactive: dose: 0.19 mg/kg/injection, schedule: Q01DX009 (ip), vehicle: saline with Tween-80 98 % of control | dose: 0.39 mg/kg/injection, schedule: Q01DX009 (ip), vehicle: saline with Tween-80 101 % of control | dose: 0.78 mg/kg/injection, schedule: Q01DX009 (ip), vehicle: saline with Tween-80 95 % of control | dose: 1.56 mg/kg/injection, schedule: Q01DX009 (ip), vehicle: saline with Tween-80 96 % of control

ClC1(c2ccccc2)c2ccc(Br)cc2-c2cc(Br)ccc21
inactive: dose: 66.0 mg/kg/injection, schedule: Q01DX009 (ip), vehicle: saline with Tween-80 100 % of control | [5] 121 % of control | [6] 88 % of control

Cn1cnc2c(SCc3ccccc3)ncnc21
inactive: [5] 109 % of control | [7] 113 % of control | [8] 90 % of control

OC1CCCC2CCC[N-]C12.OC1CCCC2CCC[N-]C12.[Mn+2] (stereo not drawn)
inactive: dose: 6.25 mg/kg/injection, schedule: Q01DX009 (ip), vehicle: DMSO 107 % of control | dose: 12.5 mg/kg/injection, schedule: Q01DX009 (ip), vehicle: DMSO 110 % of control | dose: 25.0 mg/kg/injection, schedule: Q01DX009 (ip), vehicle: DMSO 108 % of control | dose: 50.0 mg/kg/injection, schedule: Q01DX009 (ip), vehicle: DMSO 123 % of control | dose: 100.0 mg/kg/injection, schedule: Q01DX009 (ip), vehicle: DMSO 100 % of control

O=N[O-].O=N[O-].O=N[O-].[Co+3].[NH-]CC[N-]CC[NH-]
inactive: [9] 111 % of control

O=C1/C(=C\c2ccc(Cl)cc2Cl)SC(=S)N1Cc1ccco1
inactive: [9] 97 % of control | [5] 91 % of control | [7] 88 % of control

CCOC(=O)N1CCN(C(=O)OCC)CC1
inactive: [9] 100 % of control | [5] 100 % of control | [10] 90 % of control | [7] 95 % of control

CN(C)N=Nc1cc(Cl)cc(C(N)=O)c1Cl
inactive: dose: 12.5 mg/kg/injection, schedule: Q01DX009 (ip), vehicle: saline with Tween-80 108 % of control | [11] 104 % of control | [9] 104 % of control | dose: 88.0 mg/kg/injection, schedule: Q01DX009 (ip), vehicle: saline with Tween-80 108 % of control | dose: 177.0 mg/kg/injection, schedule: Q01DX009 (ip), vehicle: saline with Tween-80 95 % of control | dose: 266.0 mg/kg/injection, schedule: Q01DX009 (ip), vehicle: saline with Tween-80 87 % of control

ClC(Cl)C(Cl)(Cl)C(Cl)(Cl)Cl
inactive: dose: 50.0 mg/kg/injection, schedule: Q01DX009 (ip), vehicle: Klucel (hydroxypropylcellulose) (HPC) 91 % of control | dose: 50.0 mg/kg/injection, schedule: Q04DX003 (ip), vehicle: Klucel (hydroxypropylcellulose) (HPC) 104 % of control | dose: 100.0 mg/kg/injection, schedule: Q01DX009 (ip), vehicle: Klucel (hydroxypropylcellulose) (HPC) 95 % of control | [3] 109 % of control | [6] 100 % of control | [12] 109 % of control

Nc1ccc(Nc2ccccc2)c(S(=O)(=O)O)c1
inactive: dose: 50.0 mg/kg/injection, schedule: Q01DX009 (ip), vehicle: saline 116 % of control | dose: 100.0 mg/kg/injection, schedule: Q01DX009 (ip), vehicle: saline 100 % of control | dose: 200.0 mg/kg/injection, schedule: Q01DX009 (ip), vehicle: saline 108 % of control | dose: 400.0 mg/kg/injection, schedule: Q01DX009 (ip), vehicle: saline 104 % of control and 116 % of control

O=N[O-].O=N[O-].[Co].[NH-]CC[N-]CCO.[NH-]CC[N-]CCO
inactive: dose: 12.5 mg/kg/injection, schedule: Q01DX009 (ip), vehicle: water 102 % of control and 115 % of control | dose: 40.0 mg/kg/injection, schedule: Q01DX009 (ip), vehicle: water 118 % of control | dose: 50.0 mg/kg/injection, schedule: Q01DX009 (ip), vehicle: water 100 % of control and 111 % of control | dose: 100.0 mg/kg/injection, schedule: Q01DX009 (ip), vehicle: water 101 % of control

N#Cc1ccccc1[N+](=O)[O-]
inactive: dose: 4.0 mg/kg/injection, schedule: Q01DX010 (ip), vehicle: carboxymethylcellulose (CMC) 100 % of control | dose: 16.0 mg/kg/injection, schedule: Q01DX010 (ip), vehicle: carboxymethylcellulose (CMC) 100 % of control

Nc1ccccc1-c1ccccc1N
inactive: [3] 100 % of control | [12] 90 % of control

C#CC[As+](c1ccccc1)(c1ccccc1)c1ccccc1
inactive: dose: 3.0 mg/kg/injection, schedule: Q01DX009 (ip), vehicle: Klucel (hydroxypropylcellulose) (HPC) 121 % of control | dose: 5.3 mg/kg/injection, schedule: Q04DX003 (ip), vehicle: Klucel (hydroxypropylcellulose) (HPC) 117 % of control | [1] 104 % of control and 113 % of control | [2] 109 % of control

CCCCCCC#CC(=O)OC
inactive: [11] 106 % of control | [9] 106 % of control | [5] 109 % of control | [7] 106 % of control

CCCNC(C)(C)C(SS)c1ccc(Cl)cc1 (stereo not drawn)
inactive: [4] 109 % of control | [10] 104 % of control | [13] 109 % of control

O=C(c1cccs1)c1cccs1
inactive: [9] 101 % of control | [5] 108 % of control | [10] 102 % of control | [7] 92 % of control | [13] 90 % of control | [8] 99 % of control | dose: 400.0 mg/kg/injection, schedule: Q04DX003 (ip), vehicle: saline with Tween-80 112 % of control

C[n+]1c(-c2ccccc2)c2cc(N)ccc2c2ccccc21
inactive: dose: 3.1 mg/kg/injection, schedule: Q04DX003 (ip), vehicle: saline 110 % of control | dose: 10.0 mg/kg/injection, schedule: Q04DX003 (ip), vehicle: saline 122 % of control
active: dose: 6.6 mg/kg/injection, schedule: Q01DX009 (ip), vehicle: saline 153 % of control | dose: 10.0 mg/kg/injection, schedule: Q01DX009 (ip), vehicle: saline 165 % of control and 181 % of control

COC(=O)C(I)C(OC)c1ccccc1 (stereo not drawn)
inactive: [5] 100 % of control | [7] 105 % of control | [8] 110 % of control

O=C1CCC(=O)N1CO
inactive: dose: 25.0 mg/kg/injection, schedule: Q04DX003 (ip), vehicle: saline 109 % of control | dose: 44.0 mg/kg/injection, schedule: Q04DX003 (ip), vehicle: saline 95 % of control | dose: 50.0 mg/kg/injection, schedule: Q04DX003 (ip), vehicle: saline 104 % of control | dose: 66.0 mg/kg/injection, schedule: Q04DX003 (ip), vehicle: saline 109 % of control | dose: 100.0 mg/kg/injection, schedule: Q04DX003 (ip), vehicle: saline 118 % of control
active: dose: 300.0 mg/kg/injection, schedule: Q04DX003 (ip), vehicle: saline 159 % of control
